Laboratory results as given in patent publication US10543202B2 (University of Saskatchewan, priority 2017, dated 2020).
Entries after “also recorded” stand apart in the source; their conditions may differ.

How the values were obtained:
Type in all cases: physicochemical
[1] = Thin film of cream exposed to UVA light (photostability); conditions: for effect of photostabilizer in nifedipine emulsion on stability of nifedipine to UVA light: photostabilizer incorporated at varying concentrations up to 3% w/w in nifedipine 2% w/w cream
Description: (§1) Light Exposure: A UVA lamp was mounted 8.5 inches above a lab bench surface and the flux set to 740-750 μW/cm^2. This level of flux is roughly equivalent to a bright sunny day in mid-summer. […] The lamp apparatus was placed inside an enclosure with an access door, to prevent ambient light entering and for worker safety. For samples exposed to “ambient light”, these were placed on a laboratory bench where standard fluorescent lighting was used. […] To prevent drying, the samples were covered with Saran Wrap®, a plastic film that was determined to be UVA-transparent. After the allotted exposure time the cream was scraped off the slide for extraction with methanol. Samples which were exposed while in solution and not incorporated in a cream were dissolved in methanol as a 20 mL solution in a 100 mL beaker.
The sample was warmed in a water bath to 85° C. to melt lipids, followed by addition of 5 mL of methanol and vortex mixing. The samples were centrifuged at 14,000×g for 5 minutes and the supernatant retained for analysis.
Values reported represent mean±SD for triplicate measurements.

[2] = Emulsion phase stability analysis (LUMiSizer photocentrifuge, instability index); conditions: photocentrifuge 42° C., 12 hrs, versus emulsion without photostabilizers
Experimental: This allows for an approximation of the relative stability to phase separation of emulsions that differ in the type or percentage of photoprotectant and for confirming batch-to-batch consistency in stability against phase separation.^35 For each sample type, triplicate samples of 2 mL were loaded into photocentrifuge acrylic cuvettes. The samples were centrifuged at 42° C.×12 hrs. Phase separation was detected as an increase in light transmission at the top of the sample, which is interpreted as an “instability index” reflecting the rate of change of light transmission.

[3] = Mass spectrometry analysis of nifedipine and its photodegradants in UVA-exposed creams
Description: as §1

| Compound | effect of photostabilizer in nifedipine emulsion on stability of nifedipine to UVA light [1] | effect of photostabilizer on instability index / phase stability of nifedipine emulsion [2] | alternative nifedipine degradation pathways in presence of photostabilizer [3] | effect of quercetin on photostability of nifedipine cream after UVA exposure ([1]; quercetin 0.5% w/w alone in nifedipine cream) | difference in nifedipine concentration between preparations with and without rutin ([1]; 2 h UVA exposure) | effectiveness as photoprotectant for nifedipine in O/W emulsion ([1]; concentrations up to 2% (w/w)) | reduction of UVA-induced degradation of nifedipine ([1]; rutin 0.5-3% (w/w), 20 mg thin film, over 3 hrs) |
| --- | --- | --- | --- | --- | --- | --- | --- |
| COc1ccc(C(=O)CC(=O)c2ccc(C(C)(C)C)cc2)cc1 [BMDBM, 1-(4-methoxyphenyl)-3-[4-(2-methyl-2-propanyl)phenyl]-1,3-propanedione] | moderately effective | reduced the instability; also recorded: increased the stability of the nifedipine emulsion | no alternative degradation pathways identified | – | – | – | – |
| O=c1c(O)c(-c2ccc(O)c(O)c2)oc2cc(O)cc(O)c12 [quercetin, 2-(3,4-dihydroxyphenyl)-3,5,7-trihydroxy-4H-chromen-4-one] | increased the stability of nifedipine to UVA light | reduced the instability; also recorded: increased the stability of the nifedipine emulsion | no alternative degradation pathways identified | moderately effective; also recorded: photostability was improved | – | – | – |
| C[C@@H]1O[C@@H](OC[C@H]2O[C@@H](Oc3c(-c4ccc(O)c(O)c4)oc4cc(O)cc(O)c4c3=O)[C@H](O)[C@@H](O)[C@@H]2O)[C@H](O)[C@H](O)[C@H]1O [rutin, 2-(3,4-dihydroxyphenyl)-5,7-dihydroxy-4-oxo-4H-chromen-3-yl 6-O-(6-deoxy-α-L-mannopyranosyl)-β-D-glucopyranoside] | not protected from photodegradation; also recorded: not effective | – | no alternative degradation pathways identified | – | No significant difference | ineffective | did not significantly reduce UVA-induced degradation of nifedipine |
